In patent US20240279232A1, “USE OF SUBSTITUTED 5-(4-METHYL-6-PHENYL-4H-BENZO[F]IMIDAZO[1,5-A][1,4] DIAZEPIN-3-YL)-1,2,4-O[…] THE TREATMENT OF INFLAMMATORY CONDITIONS” (priority 2021, published 2024):

Tests used:
HEPG2 = test: Viability assay (CellTiter-Glo), HEPG2; format: cell-based, human; settings: for Cell viability (%) HEPG2 120 μM: CellTiter-Glo
Protocol: (§1) The screen identified several compounds that reduced NO in activated microglia and macrophages. The tested compounds included achiral and chiral imidazodiazepines and benzodiazepines. In general, microglia were more sensitive to compound treatment with more pronounced reduction of NO than macrophages. […] Cell viability assays with HEK293 (kidney) and HepG2 (liver) cells were conducted in a concentration dependent manner. A limited number of compounds, such as GL-III-63, GL-III-76A, and GL-III-77, were toxic at 120 μM.
(§2) Viability assay. Human liver hepatocellular carcinoma (HEPG2) and human embryonic kidney 293T (HEK293T) cell lines were purchased (ATCC) and cultured in 75 cm^2 flasks (CellStar). Cells were grown in DMEM/High Glucose (Hyclone, #SH3024301) media to which non-essential amino acids (Hyclone, #SH30238.01), 10 mM HEPES (Hyclone, #SH302237.01), 5×10^6 units of penicillin and streptomycin (Hyclone, #SV30010), and 10% of heat inactivated fetal bovine serum (Gibco, #10082147) were added. Cells were harvested using 0.05% Trypsin (Hyclone, #SH3023601), washed with PBS, and dispensed into sterile white, optical bottom 384-well plates (NUNC, #142762). After three hours, small molecule DMSO solutions were transferred with a Tecan Freedom EVO liquid handling system equipped with a 100 nL pin tool (V&P Scientific). The controls were 3-dibutylamino-1-(4-hexyl-phenyl)-propan-1-one (25 mM in DMSO, positive control) and DMSO (negative control). The cells were incubated for 48 hours followed by the addition of CellTiter-Glo™, a luminescence-based cell viability assay (Promega, Madison, WI). All luminescence readings were performed on a Tecan Infinite M1000 plate reader. The assay was carried out in quadruplet with two independent runs. The data were analyzed by nonlinear regression.

HEK293 = test: Viability assay (CellTiter-Glo), HEK293; format: cell-based, human; settings: for Cell viability (%) HEK293 120 μM: CellTiter-Glo
Protocol: as §1, §2

Mouse microglia [1] = test: NO production (Griess assay), LPS/IFNγ-activated mouse microglia; format: cell-based; settings: for Inhibition of NO production (%) Mouse microglia 10 μM: 24 hours, 1 μM GABA, LPS/IFNγ; for inhibition at 10 µM / inhibition at 50 µM: Mus musculus, Microglia, 24 h
Protocol: (§3) Next, a library of GABAAR ligands was investigated to identify compounds that reduce the production of NO as a marker of anti-inflammatory activity. […] NO was quantified with a Greiss assay. Cell viability was determined with CellTiter-Glo.
Cell culture. A) HMC3 Microglia (CRL-3304) were maintained in treated cell culture flasks (Nunc, 156472) with EMEM (Corning, 10010CV) supplemented with 10% heat-inactivated FBS (Corning, 35011CV) and 100 U/mL penicillin and 100 μg/mL streptomycin (Hyclone, SV30010). Cultures were maintained at 37° C. and 5% CO2. When cells reached a density of 7×10^4 cells/mL, cultures were passaged with 0.25% Trypsin (Corning, 25-053-CI) and resuspended to a density no lower than 10,000 cells/mL. B) Human and mouse microglia cell lines were a gift from Dr. David Alvarez-Carbonell at Case Western Reserve University (Cleveland, OH). Microglia were cultured in cell culture treated flasks (Nunc, 156472) with DME/F12 media (Hyclone, SH30023.01) supplemented with 10% heat-inactivated FBS (Corning, 35011CV), 100 U/mL penicillin/100 μg/mL streptomycin (Hyclone, SV30010), and Normocin (Invivogen, ant-nr). Cultures were maintained at 37° C. and 5% CO2. […] Cultures were maintained at 37° C. and 5% CO2. Cells were passaged when they reached a density of approximately 3×10^6 cells/mL using cell scrapers (VWR, 10062-906) to lift cells from flask surface and resuspended at densities of approximately 500,000 cells/mL.
(§4) Nitric oxide production (Griess assay) and viability assay (CellTiter-Glo). 80 μL of mouse microglia culture (1×10^6 cells/mL) was plated into sterile 384 well plates representing non-activated wells. The remaining culture was activated with 50 ng/ml LPS (Invivogen, NC9836) and 150 U/mL IFNγ (R&D Systems, 485MI100) and distributed into the 384 well plates. […] Assay plates were incubated for approximately 24 hours (unless otherwise noted) at 37° C., centrifuged, and 40 μL of supernatant transferred to a new plate for analysis using the Griess Assay (Promega, Madison, WI). Absorbance at 530 nm was measured using a TECAN Infinite M1000 plate reader. The remaining 40 μL containing cells was analyzed for toxicity by the CellTiter-Glo Assay (Promega, Madison, WI). Luminescence was read using a TECAN Infinite M1000 plate reader.

RAW macrophages [2] = test: Cell viability (CellTiter-Glo), RAW macrophages; format: cell-based, mouse; settings: CellTiter-Glo
RAW macrophages [3] = test: NO production (Griess assay), LPS/IFNγ-activated RAW264.7 macrophages; format: cell-based, mouse; settings: for Inhibition of NO production (%) RAW macrophages 10 μM: 24 hours, 1 μM GABA, LPS/IFNγ
Mouse microglia [4] = test: Cell viability (CellTiter-Glo), mouse microglia; format: cell-based; settings: 50 μM, CellTiter-Glo
Protocol: as §3, §4

DOR (δ opioid receptor) = target: T1, DOR (δ opioid receptor) (Homo sapiens, UniProt P41143); test: DOR radioligand binding ([3H]-DADLE, HEK293 cell homogenates); settings: Percent inhibition at 10,000 nM; [3H]-DADLE
T1 construct: expressed in transfected cells; host or cells: HEK293

[5] = system: BZR (benzodiazepine site of GABAAR); test: GABAAR/BZR binding, rat brain homogenate with 3H-flunitrazepam; settings: rat brain homogenate, 3H-flunitrazepam; for BZR %: Percent inhibition at 10,000 nM
In short: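 Rat brain homogenate incubated with 3H-flunitrazepam near its Kd, typically 90 min at room temperature in the dark; nonspecific binding defined with 10 μM reference compound. Filtration on PEI-soaked mats, scintillation counting; compounds screened at 10,000 nM, those above 50% displacement taken to concentration–response for Ki by nonlinear regression (n=6).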

MOR (μ opioid receptor) = target: T2, MOR (μ opioid receptor) (Homo sapiens, UniProt P35372); test: MOR radioligand binding ([3H]-DAMGO, HEK293 cell homogenates); settings: for inhibition at 10 µM: Percent inhibition at 10,000 nM, [3H]-DAMGO
T2 construct: expressed in transfected cells; host or cells: HEK293

KOR (κ opioid receptor) = target: T3, KOR (κ opioid receptor) (Homo sapiens, UniProt P41145); test: KOR radioligand binding ([3H]-U69593, HEK293 cell homogenates); settings: for inhibition at 10 µM: Percent inhibition at 10,000 nM, [3H]-U69593
T3 construct: expressed in transfected cells; host or cells: HEK293 (stably transfected)
T3 sequence (P41145 whole entry): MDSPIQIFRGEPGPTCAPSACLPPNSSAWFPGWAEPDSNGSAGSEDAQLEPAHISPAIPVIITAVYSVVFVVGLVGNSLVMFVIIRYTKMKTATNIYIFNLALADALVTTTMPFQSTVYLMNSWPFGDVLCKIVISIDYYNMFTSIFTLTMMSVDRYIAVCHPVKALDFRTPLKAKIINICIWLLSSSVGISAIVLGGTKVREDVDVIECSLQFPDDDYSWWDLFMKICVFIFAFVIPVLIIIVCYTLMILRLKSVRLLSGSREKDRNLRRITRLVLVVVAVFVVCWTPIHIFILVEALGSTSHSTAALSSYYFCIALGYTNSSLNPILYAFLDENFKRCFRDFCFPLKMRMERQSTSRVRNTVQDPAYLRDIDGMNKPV

T1 sequence (P41143 whole entry): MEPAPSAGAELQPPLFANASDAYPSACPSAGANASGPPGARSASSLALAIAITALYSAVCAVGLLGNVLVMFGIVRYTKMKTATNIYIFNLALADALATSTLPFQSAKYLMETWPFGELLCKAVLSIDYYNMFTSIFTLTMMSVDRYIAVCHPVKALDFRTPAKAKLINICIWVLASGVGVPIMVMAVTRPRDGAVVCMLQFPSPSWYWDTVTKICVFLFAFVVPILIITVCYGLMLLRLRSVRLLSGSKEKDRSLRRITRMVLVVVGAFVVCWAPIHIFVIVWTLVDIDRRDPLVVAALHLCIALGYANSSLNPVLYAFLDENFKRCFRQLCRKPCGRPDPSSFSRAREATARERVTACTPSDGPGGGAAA
T2 sequence (P35372 whole entry, species assumed): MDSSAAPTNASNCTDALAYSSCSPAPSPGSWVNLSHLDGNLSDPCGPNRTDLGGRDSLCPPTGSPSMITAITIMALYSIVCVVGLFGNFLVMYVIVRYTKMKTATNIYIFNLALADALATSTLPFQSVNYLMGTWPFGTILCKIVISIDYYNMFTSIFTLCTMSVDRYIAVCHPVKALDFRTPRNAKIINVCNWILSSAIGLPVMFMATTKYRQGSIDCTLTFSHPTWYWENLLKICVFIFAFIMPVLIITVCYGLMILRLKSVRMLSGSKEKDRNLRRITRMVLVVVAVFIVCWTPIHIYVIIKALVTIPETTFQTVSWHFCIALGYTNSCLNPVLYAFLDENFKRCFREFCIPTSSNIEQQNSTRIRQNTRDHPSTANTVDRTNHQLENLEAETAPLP

Compound | Cell viability (%) HEPG2 120 μM (HEPG2) | toxicity at 120 μM (in words) (HEPG2; HepG2, 120 μM) | Cell viability (%) HEK293 120 μM (HEK293) | toxicity at 120 μM (in words) (HEK293; HEK293, 120 μM) | Inhibition of NO production (%) Mouse microglia 10 μM (Mouse microglia [1]) | Cell viability (%) RAW macrophages 50 μM (RAW macrophages [2]) | Inhibition of NO production (%) RAW macrophages 10 μM (RAW macrophages [3]) | Cell viability (%) Mouse microglia 50 μM (Mouse microglia [4]) | inhibition at 10 µM (DOR (δ opioid receptor)) | BZR % [5] | Ki [5] | inhibition at 10 µM (MOR (μ opioid receptor)) | inhibition at 10 µM (Mouse microglia [1]) | inhibition at 10 µM (RAW macrophages [3]; Mus musculus, Macrophage, 24 h) | inhibition at 10 µM (KOR (κ opioid receptor)) | Ki (MOR (μ opioid receptor)) | inhibition at 50 µM (Mouse microglia [1]) | inhibition at 50 µM (RAW macrophages [3]; Mus musculus, Macrophage, 24 h) | Ki (KOR (κ opioid receptor))
CC1N=C(c2ccccc2F)c2cc(Br)ccc2-n2cnc(-c3cnco3)c21 (racemic) [GL-III-76A] | 0 ± 2% | toxic | 0 ± 3% | toxic | 58 ± 9% | 97 ± 4% | 6 ± 3% | 100 ± 9% | – | – | – | – | – | – | – | – | – | – | –
C#Cc1ccc2c(c1)C(c1ccccn1)=NCc1c(C(=O)O)ncn1-2 [GL-III-13] | 100 ± 10% | – | 74 ± 5% | – | – | 100 ± 9% | 0 ± 2% | 92 ± 9% | – | – | – | – | – | – | – | – | – | – | –
CC1N=C(c2ccccc2F)c2cc(Br)ccc2-n2cnc(C=O)c21 (centres unmarked) [GL-III-75] | 74 ± 6% | – | 73 ± 2% | – | 44 ± 2% | 100 ± 2% | 3 ± 5% | 87 ± 7% | – | – | – | – | – | – | – | – | – | – | –
C#Cc1ccc2c(c1)C(c1ccccc1)=NCC(=O)N2 [GL-III-59] | 100 ± 2% | – | 100 ± 4% | – | 43 ± 7% | 100 ± 3% | 8 ± 1% | 96 ± 4% | – | – | – | – | – | – | – | – | – | – | –
C#Cc1ccc2c(c1)C(c1ccccc1)=NCc1c(C(=O)OCCCO)ncn1-2 [GL-I-48] | 100 ± 4% | – | 65 ± 8% | – | 0 ± 4% | 100 ± 12% | 4 ± 2% | 78 ± 5% | – | – | – | – | – | – | – | – | – | – | –
C#Cc1ccc2c(c1)C(c1ccccn1)=N[C@H](C)c1c(C(=O)OC)ncn1-2 [GL-II-32] | – | – | 80 ± 6% | – | – | 100 ± 4% | – | 95 ± 8% | 0% | 63% | 1430 nM | 32% | 7 ± 2% | 6 ± 3% | 35% | – | – | – | –
CCc1noc(-c2ncn3c2CN=C(c2ccccn2)c2cc(Br)ccc2-3)n1 [GL-III-99] | 93 ± 7% | – | 87 ± 11% | – | 49 ± 5% | 100 ± 9% | 19 ± 3% | 95 ± 9% | – | – | – | – | – | – | – | – | – | – | –
C#Cc1ccc2c(c1)C(c1ccccc1F)=N[C@@H](C)c1c(-c3nc(C(C)C)no3)ncn1-2 [GL-I-81, (S)-5-(8-Ethynyl-6-(2-fluorophenyl)-4-methyl-4H-benzo[f]imidazo[1,5-a][1,4]diazepin-3-yl)-3-isopropyl-1,2,4-oxadiazole] | – | – | – | – | – | 91 ± 7% | – | 94 ± 10% | 25% | 83% | 839 nM | 64% | 64 ± 9% | 0% | 93% | 2920 nM | 87 ± 2% | 6 ± 2% | 127 nM
CCc1noc(-c2ncn3c2[C@@H](C)N=C(c2ccccc2F)c2cc(Br)ccc2-3)n1 [GL-III-98, (R)-5-(8-Bromo-6-(2-fluorophenyl)-4-methyl-4H-benzo[f]imidazo[1,5-a][1,4]diazepin-3-yl)-3-ethyl-1,2,4-oxadiazole] | 56 ± 5% | – | 42 ± 8% | – | – | 100 ± 11% | – | 83 ± 6% | – | – | – | – | 75 ± 9% | 1 ± 4% | – | – | – | – | –
C#Cc1ccc2c(c1)C(c1ccccn1)=N[C@H](C)c1c(-c3nc(CC)no3)ncn1-2 [GL-II-54] | – | – | – | – | – | 100 ± 8% | – | 95 ± 3% | 0% | 66% | 2040 nM | 0% | – | – | 80% | – | 0% | – | 504 nM
C#Cc1ccc2c(c1)C(c1ccccn1)=NCC(=O)N2 [GL-III-58] | 100 ± 5% | – | 89 ± 2% | – | 48 ± 4% | 100 ± 14% | – | 83 ± 4% | – | – | – | – | – | – | – | – | – | – | –
